Measurements taken from patent EP4043466B1, “PRC2 INHIBITORS” (Mirati Therapeutics, Inc., priority 2018, dated 2019).
pIC50: −log10 of the molar value.

Experiments:
[1] = test system: PRC2-mediated histone H3 methylation; experiment: Tri-Methyl Histone H3 (Lys 27) Sandwich ELISA in Pfeiffer cells: inhibition of PRC2-mediated histone H3 methylation; type: cell-based, human; settings: Inhibition of EZH2-mediated histone H3 trimethylation, Pfeiffer cells (EZH2 A677G), 96 hours incubation
How it was run: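 Pfeiffer DLBCL cells (EZH2 A677G mutant) treated with 3-fold serial dilutions, 1µM to 0.15 nM final, for 96 hours at 37°C. Acid (0.4M HCl) histone extracts, neutralized, assayed by H3K27me3 sandwich ELISA with HRP/TMB read at 450 nm.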

[2] = target: purified human, His-tagged PRC2 complex (Homo sapiens, UniProt O75530+Q15910); experiment: Hot Spot HMT assay: inhibition of PRC2 enzymatic activity (transfer of tritiated methyl from SAM to core histone, filter binding); type: biochemical; settings: Inhibition of PRC2-mediated enzymatic activity; 10 nM PRC2 complex, 0.05 mg/ml core histone H3, 1 uM 3H-SAM, 1 hr at 30°C
How it was run: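 Five-subunit complex (His-EZH2, Flag-EED, His-SUZ12, His-AEBP2, His-RbAp48) at 10 nM with 0.05 mg/ml core histone H3, pH 8 Tris buffer, 1% DMSO; 20 min compound pre-incubation at 30°C. Started with 1 uM [3H]-SAM, 1 hr at 30°C; tritiated H3 counted by scintillation. Compounds diluted from 1.0 µM top concentration.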

[3] = test system: Karpas 422 cells; experiment: Karpas 422 cell viability, CTG (Cell Titre Glo) assay; type: cell-based, human; settings: Inhibition of proliferation of Karpas 422 cells (EZH2 Y641N), viability measured Day 4, Day 7 or Day 11, time point of the tabulated values not stated
How it was run: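 Karpas 422 cells (EZH2 Y641N, DLBCL) plated at 1000 cells/well in RPMI with 20% FBS, exposed to compound 10µM down to 1.5nM in 3-fold steps at 37 °C. Viability by CellTiter-Glo on Days 4, 7 and 11; Day 11 plates re-fed with fresh medium and compound on Day 7. IC50 per time point.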

Chain of purified human, His-tagged PRC2 complex (Q15910 whole entry): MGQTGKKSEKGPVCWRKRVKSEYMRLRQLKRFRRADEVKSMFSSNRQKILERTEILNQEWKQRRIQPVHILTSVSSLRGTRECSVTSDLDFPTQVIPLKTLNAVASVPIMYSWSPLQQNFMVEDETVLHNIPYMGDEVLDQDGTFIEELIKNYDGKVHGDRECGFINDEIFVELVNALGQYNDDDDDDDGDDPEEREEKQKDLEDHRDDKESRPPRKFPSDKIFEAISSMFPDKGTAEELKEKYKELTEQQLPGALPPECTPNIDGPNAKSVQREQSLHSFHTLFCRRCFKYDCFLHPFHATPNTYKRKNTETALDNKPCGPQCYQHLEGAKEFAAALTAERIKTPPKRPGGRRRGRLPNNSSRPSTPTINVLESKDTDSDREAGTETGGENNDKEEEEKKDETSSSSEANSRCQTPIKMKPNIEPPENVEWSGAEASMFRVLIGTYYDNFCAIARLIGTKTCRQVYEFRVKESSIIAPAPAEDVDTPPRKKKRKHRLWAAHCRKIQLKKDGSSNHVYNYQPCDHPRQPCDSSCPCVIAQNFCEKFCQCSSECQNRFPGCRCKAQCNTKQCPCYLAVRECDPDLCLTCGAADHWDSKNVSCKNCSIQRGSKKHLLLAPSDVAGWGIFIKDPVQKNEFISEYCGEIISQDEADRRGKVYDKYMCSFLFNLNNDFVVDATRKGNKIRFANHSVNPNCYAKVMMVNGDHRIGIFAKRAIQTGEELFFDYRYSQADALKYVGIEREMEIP
Chain of purified human, His-tagged PRC2 complex (O75530 whole entry): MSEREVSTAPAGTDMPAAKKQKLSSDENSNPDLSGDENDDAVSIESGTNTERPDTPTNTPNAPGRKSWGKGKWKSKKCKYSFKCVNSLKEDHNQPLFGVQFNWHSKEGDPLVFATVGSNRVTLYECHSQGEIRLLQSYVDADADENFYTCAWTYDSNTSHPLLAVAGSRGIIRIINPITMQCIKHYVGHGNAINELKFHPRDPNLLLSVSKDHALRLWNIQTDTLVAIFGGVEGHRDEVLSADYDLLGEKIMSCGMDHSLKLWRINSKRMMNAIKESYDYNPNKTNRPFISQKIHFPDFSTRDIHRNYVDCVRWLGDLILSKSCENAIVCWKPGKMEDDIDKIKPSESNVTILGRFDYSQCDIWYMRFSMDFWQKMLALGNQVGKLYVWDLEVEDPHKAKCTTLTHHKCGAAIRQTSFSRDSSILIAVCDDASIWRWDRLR
Chain of purified human, His-tagged PRC2 complex (Q15022 whole entry partner): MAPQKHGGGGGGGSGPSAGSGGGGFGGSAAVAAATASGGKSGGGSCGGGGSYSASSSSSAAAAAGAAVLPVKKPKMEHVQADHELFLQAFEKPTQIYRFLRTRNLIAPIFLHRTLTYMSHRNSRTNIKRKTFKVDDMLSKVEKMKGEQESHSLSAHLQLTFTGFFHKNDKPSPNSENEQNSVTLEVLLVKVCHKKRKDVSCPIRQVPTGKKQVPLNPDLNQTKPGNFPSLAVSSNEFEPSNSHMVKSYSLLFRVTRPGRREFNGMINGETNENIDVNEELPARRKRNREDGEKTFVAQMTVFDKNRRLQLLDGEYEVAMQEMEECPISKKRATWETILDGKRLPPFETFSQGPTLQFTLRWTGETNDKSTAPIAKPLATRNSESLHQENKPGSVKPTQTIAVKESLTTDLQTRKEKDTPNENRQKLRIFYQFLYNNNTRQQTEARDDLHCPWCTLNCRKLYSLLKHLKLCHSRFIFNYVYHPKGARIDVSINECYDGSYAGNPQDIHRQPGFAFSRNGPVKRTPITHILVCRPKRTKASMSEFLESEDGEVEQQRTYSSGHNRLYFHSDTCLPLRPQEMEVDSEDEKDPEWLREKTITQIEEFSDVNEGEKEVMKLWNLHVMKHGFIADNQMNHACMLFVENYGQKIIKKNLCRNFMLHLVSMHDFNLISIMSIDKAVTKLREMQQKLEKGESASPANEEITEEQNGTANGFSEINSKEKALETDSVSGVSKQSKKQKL
Chain of purified human, His-tagged PRC2 complex (Q6ZN18 whole entry partner): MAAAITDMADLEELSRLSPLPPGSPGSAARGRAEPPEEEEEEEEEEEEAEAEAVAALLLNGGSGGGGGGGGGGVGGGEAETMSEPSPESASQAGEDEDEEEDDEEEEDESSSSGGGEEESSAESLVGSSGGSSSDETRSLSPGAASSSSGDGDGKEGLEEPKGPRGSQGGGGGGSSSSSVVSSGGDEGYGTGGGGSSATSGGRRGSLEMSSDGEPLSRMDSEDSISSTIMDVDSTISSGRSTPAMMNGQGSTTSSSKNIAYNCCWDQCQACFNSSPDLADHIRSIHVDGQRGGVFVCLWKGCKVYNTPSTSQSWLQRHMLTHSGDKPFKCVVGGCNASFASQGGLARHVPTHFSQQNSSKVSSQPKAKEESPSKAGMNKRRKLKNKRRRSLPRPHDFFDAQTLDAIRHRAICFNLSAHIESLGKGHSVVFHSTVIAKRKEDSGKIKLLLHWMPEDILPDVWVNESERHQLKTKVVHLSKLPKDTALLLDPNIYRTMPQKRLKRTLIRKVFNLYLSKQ
Chain of purified human, His-tagged PRC2 complex (Q09028 whole entry partner): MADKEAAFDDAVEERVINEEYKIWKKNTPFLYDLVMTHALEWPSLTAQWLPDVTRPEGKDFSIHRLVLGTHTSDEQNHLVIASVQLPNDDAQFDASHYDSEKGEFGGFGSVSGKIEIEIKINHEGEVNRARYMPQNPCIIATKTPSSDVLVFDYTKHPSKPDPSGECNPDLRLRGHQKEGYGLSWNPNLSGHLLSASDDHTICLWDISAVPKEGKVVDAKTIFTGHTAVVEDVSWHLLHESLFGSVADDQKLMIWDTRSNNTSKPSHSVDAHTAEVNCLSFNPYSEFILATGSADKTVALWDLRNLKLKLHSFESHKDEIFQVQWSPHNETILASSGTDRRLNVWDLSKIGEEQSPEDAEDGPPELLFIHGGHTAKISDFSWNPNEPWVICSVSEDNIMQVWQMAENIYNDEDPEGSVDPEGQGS

Row | pIC50 [1] | pIC50 [2] | pIC50 [3] | pIC50 ([1]; Homo sapiens) | pIC50 ([3]; Homo sapiens) | Compound
1 | 6.30 to 7.00 | 6.30 to 7.00 | ≥ 6.60 |  |  | 5-(((5-fluoro-2,3-dihydrobenzofuran-4-yl)methyl)amino)-8-(2-methylpyridin-4-yl)imidazo[1,2-c]pyrimidine-2-carbonitrile [Example 178]
2 |  | 6.30 to 7.00 |  | 6.30 to 7.00 | ≥ 6.60 | N#Cc1cn2c(NCc3c(F)ccc4c3CCO4)ncc(-c3ccc(C4CCN4)cc3)c2n1 (stereo not drawn) [Example 226, 8-(4-(azetidin-2-yl)phenyl)-5-(((5-fluoro-2,3-dihydrobenzofuran-4-yl)methyl)amino)imidazo[1,2-c]pyrimidine-2-carbonitrile]
